{"source": "patent US11026875B2", "about": "“Skin restoration product” (Givaudan SA, priority 2016, dated 2021)", "system": "normal human dermal fibroblasts (NHFs)", "experiment": "N-sulfated GAG (heparan sulfate) synthesis (production + liberation) by normal human dermal fibroblasts", "assay_type": "cell-based", "conditions": "72 h, cells pellets + supernatants, reported to total proteins, composition at 1 mM", "protocol": "The composition was applied at 0.5 and 1 mM to normal human dermal fibroblasts (NHFs) over a period of 72 hours. Normal human fibroblasts (NHFs), were isolated from the skin dermis of Caucasian women donors (plastic surgery). Cells were seeded at 80 000 fibroblasts/well in 24-wells plates and were left to adhere for 24 hours at 37° C./5% CO2 in complete DMEM (Dulbecco's Modified Eagle Medium) (with antibiotics and FBS, fetal bovine serum).\nThe cells were then treated with the composition in non-supplemented medium (without FBS) for 72 hours and incubated at 37° C./5% CO2, and then total sGAG (sulfated Glycosaminoglycans) and HS (Heparan sulfate, or N-sulfated GAG) were dosed in culture supernatants and cells pellets (total proteins were dosed in cells pellets). Each product concentration was tested in duplicate. Furthermore, dosages were reported as a proportion of total amount of proteins. At the end of treatment, supernatants were collected. Cells were lysed in a papain containing buffer (Papaya latex Sigma P3125). Cells extracts were collected and centrifuged. Supernatants and cells pellets were dosed for sGAG, HS, or total proteins.\nsGAG and HS dosage principles: Total sulfated GAG (sGAG), were dosed using the Blyscan™ sGAG Assay kit (Biocolor B1000 or B3000). The Blyscan™ assay is a quantitative dye-binding method for the analysis of sulfated proteoglycans and glycosaminoglycans (sGAG). The dye label used in the assay is 1,9-dimethylmethylene blue and the dye is employed under conditions that provide a specific label for the sulfated polysaccharide component of proteoglycans or the protein free sulfated glycosaminoglycan chains. The method consists of adding a specific blue dye reagent to an aliquot of supernatants or cells pellets which makes sGAG precipitate (a complex dye-sGAG is formed and precipitates out from the soluble unbound dye).\nCentrifugation permitted the collection of a pellet of precipitate at the tube bottom. After having carefully drained the dye, the pellet was solubilized in a dissociation reagent (5-10% Sodium dodecyl sulphate). Absorbance was read at 656 nm in duplicate, in a 96-wells microplate. […] After this reaction, O-sGAG level can be measured using the protocol as normal, and N-sulfated content was subsequently calculated from the difference between the total sGAG value (determined earlier) and the O-sGAG content.\nTotal proteins dosage principle: Total proteins dosage in cells pellets was performed in parallel by colorimetric method based on bicinchoninic acid (BCA). […] The amount of reduction and of BCA-Cu^+ complex is proportional to the protein concentration present and is quantified by spectrophotometric lecture at 570 nm. […]", "data": [{"substance": "TGF beta: transforming growth factor beta, used as positive control", "values": [{"measurement": "N-sulfated GAG synthesis improvement", "setting": "donor one fibroblasts", "value": "+43%"}, {"measurement": "N-sulfated GAG synthesis improvement", "setting": "donor one fibroblasts, listed as TGFβ", "value": "+43%"}, {"measurement": "N-sulfated GAG synthesis improvement", "setting": "donor two fibroblasts", "value": "+24%"}, {"measurement": "N-sulfated GAG synthesis improvement", "setting": "donor two fibroblasts, listed as TGFβ", "value": "+24%"}]}]}
